Source: patent EP4653451A1, “POLYPEPTIDE COMPOUND AND USE THEREOF” (Chengdu New Radiomedicine Technology Co., Ltd., priority 2023, dated 2024)
Counter-ions that a name gives are not always drawn.

Key:
in vitro = settings: CD-1, mouse, plasma
Description: The plasma stability experiment was performed using plasma from CD-1 mice. The compounds were diluted to a concentration of 1 mM with methanol. To 0.792 mL of plasma, 8.00 µL of 1 mM of each test compound was added, and 50.0 µL of the plasma sample was taken after uniform mixing. The remaining sample was placed in a 37°C water bath and incubated for 24 h. […] After centrifugation, the sample was diluted 1-fold with 0.2% trifluoroacetic acid and analyzed by LC-MS/MS.

[1] = target: T1, human recombinant FAP protein (Homo sapiens, UniProt Q12884); experiment: Inhibitory activity against FAP protease activity (Z-Gly-Pro-AMC fluorescence); format: biochemical; settings: 125 pM FAP working solution, 90 min at room temperature; read-out: FAP IC50
T1 construct: purchased Acrobiosystems FAP-H82Q6
T1 sequence (Q12884 1-760): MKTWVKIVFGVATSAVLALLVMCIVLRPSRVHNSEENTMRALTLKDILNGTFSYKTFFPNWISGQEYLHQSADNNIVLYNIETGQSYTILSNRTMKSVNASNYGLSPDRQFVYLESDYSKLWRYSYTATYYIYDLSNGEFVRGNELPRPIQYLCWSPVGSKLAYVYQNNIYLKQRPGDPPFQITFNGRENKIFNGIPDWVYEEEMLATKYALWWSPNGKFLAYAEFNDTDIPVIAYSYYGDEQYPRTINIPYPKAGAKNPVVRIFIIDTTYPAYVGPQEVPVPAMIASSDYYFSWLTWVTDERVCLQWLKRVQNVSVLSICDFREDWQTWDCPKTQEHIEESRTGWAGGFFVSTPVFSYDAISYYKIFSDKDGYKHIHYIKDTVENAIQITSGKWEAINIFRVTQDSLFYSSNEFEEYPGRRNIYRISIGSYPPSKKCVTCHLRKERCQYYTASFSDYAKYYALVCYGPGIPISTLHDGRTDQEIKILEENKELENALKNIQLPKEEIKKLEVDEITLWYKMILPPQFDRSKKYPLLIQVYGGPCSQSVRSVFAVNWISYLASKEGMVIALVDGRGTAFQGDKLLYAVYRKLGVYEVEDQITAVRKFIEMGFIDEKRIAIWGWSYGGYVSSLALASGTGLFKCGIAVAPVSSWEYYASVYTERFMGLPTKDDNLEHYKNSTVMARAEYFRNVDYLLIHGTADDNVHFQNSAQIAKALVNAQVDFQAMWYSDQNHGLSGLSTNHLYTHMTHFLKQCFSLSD
Procedure, shortened: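 Working solutions of 125 pM recombinant human FAP and 150 µM Z-Gly-Pro-AMC, in pH 7.5 Tris buffer with 1 M NaCl and 1 mg/mL BSA, combined with 4-fold compound dilutions and reacted 90 min at room temperature in the dark. AMC fluorescence (Ex 380/Em 460 nm) used to fit IC50.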

[2] = target: T2, human recombinant DPP4 protein (Homo sapiens, UniProt P27487); experiment: Inhibitory activity against DPP4 protease activity (H-Gly-Pro-AMC fluorescence); format: biochemical; settings: 125 pM DPP4 working solution, 90 min at room temperature
T2 construct: purchased Acrobiosystems DP4-H5211
Procedure, shortened: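 125 pM DPP4 working solution and 250 µM H-Gly-Pro-AMC working solution (stock levels, not final) in 20 mM Tris-HCl, 100 mM NaCl, mixed with compound in 4-fold dilution series. Reaction 90 min at room temperature in the dark; AMC fluorescence read at ex 380/em 460 nm, IC50 fitted from the concentration series.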

[3] = target: T3, human recombinant PREP protein (Homo sapiens, UniProt P48147); experiment: Inhibitory activity against PREP protease activity, reported as PREP/FAP IC50 ratio; format: biochemical; settings: ratio of PREP IC50 to FAP IC50
T3 construct: purchased R&D systems 4308-SE-010
T3 sequence (P48147 1-710): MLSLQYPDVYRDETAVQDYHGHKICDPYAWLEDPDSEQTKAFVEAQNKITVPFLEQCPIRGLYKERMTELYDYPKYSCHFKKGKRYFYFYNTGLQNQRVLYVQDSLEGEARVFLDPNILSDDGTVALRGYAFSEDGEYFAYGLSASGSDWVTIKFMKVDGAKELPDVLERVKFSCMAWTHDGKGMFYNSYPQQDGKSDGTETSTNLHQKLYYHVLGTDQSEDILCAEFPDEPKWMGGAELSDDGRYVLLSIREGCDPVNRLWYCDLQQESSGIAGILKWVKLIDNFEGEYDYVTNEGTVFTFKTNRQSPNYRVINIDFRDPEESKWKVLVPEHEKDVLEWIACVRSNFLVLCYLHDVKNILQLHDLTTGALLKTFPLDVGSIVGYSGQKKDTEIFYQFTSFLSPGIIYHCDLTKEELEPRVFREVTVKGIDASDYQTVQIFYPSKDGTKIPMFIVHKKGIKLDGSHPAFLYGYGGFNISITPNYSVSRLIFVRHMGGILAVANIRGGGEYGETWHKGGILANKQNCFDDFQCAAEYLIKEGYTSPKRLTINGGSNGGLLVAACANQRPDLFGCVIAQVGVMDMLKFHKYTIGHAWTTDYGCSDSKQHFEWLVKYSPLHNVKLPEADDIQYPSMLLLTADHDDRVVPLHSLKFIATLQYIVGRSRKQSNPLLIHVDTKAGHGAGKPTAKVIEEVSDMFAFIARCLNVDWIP
Description: The human recombinant PREP protein (R&D systems, 4308-SE-010) was formulated into a 125 pM working solution with a assay buffer (25 mM Tris-HCl, 250 mM NaCl, 2.5 mM DTT, 1 mg/mL BSA), and the PREP substrate (Z-Gly-Pro-AMC (LEONBIO, 68542-93-8)) was diluted to a 125 µM PREP substrate working solution with the assay buffer. 40 µl of PREP working solution and 20 µl of compounds at different concentrations (4-fold dilution) were taken, then 40 µl of PREP substrate working solution was added, and the mixture was uniformly mixed on a shaker at room temperature for 1 min. The uniformly mixed mixture was reacted at room temperature in the dark for 90 min. Reading was made by microplate reader at excitation and emission wavelengths of 380 nm and 460 nm. The original data was saved, and the IC50 value of the compound was obtained by analyzing the data with Graphpad PRISM.

T2 sequence (P27487 whole entry): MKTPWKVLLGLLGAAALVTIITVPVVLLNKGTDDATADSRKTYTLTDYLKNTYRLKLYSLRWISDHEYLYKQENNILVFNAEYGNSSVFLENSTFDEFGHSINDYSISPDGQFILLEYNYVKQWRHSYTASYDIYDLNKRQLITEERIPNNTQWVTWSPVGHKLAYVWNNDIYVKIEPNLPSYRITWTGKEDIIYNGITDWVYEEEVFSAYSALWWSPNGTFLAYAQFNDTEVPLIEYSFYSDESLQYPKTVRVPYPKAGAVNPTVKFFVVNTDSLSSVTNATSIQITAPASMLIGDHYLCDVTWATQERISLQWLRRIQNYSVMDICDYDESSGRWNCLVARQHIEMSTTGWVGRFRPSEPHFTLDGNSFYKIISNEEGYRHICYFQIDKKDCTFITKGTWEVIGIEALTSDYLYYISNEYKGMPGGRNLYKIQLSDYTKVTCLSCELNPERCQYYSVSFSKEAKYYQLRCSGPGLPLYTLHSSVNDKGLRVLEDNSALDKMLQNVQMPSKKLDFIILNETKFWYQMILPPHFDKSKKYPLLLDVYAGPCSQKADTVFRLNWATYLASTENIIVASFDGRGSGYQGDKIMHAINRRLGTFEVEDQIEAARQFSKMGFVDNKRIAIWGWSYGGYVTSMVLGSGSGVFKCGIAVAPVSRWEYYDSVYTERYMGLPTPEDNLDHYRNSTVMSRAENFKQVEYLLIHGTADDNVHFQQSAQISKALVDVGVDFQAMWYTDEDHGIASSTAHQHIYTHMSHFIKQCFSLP

Compound | remaining at 24 h, 10 µM (in vitro) [%] | IC50 [1] [nM] | IC50 [2] [nM] | PREP/FAP [3]
CCCCCC(=O)N[C@H]1CSCc2cccc(c2F)CSC[C@@H](CNC(=O)C[C@@H](C)NC(=O)[C@H]2CC[C@H](CNC(=O)CN3CCN(CC(=O)O)CCN(CC(=O)O)CCN(CC(=O)O)CC3)CC2)NC(=O)[C@H](Cc2ccccc2)NC(=O)[C@H](CCC(N)=O)NC(=O)[C@H]([C@@H](C)O)NC(=O)[C@@H]2CCCN2C(=O)[C@@H]2CCCN2C1=O [Compound 16, Hex-Cys-Pro-Pro-Thr-Gln-Phe-Cys-CH2NH-(D-beta-HomoAla-tranexamic acid-DOTA) (Cys bridge 2,6-bis(bromomethyl)fluorobenzene) trifluoroacetate] | 96 | 0.41 | > 10000 | B (10000 > B > 3300)
Hex-Cys-Pro-Pro-Thr-Gln-Phe-Cys-CH2NHAc (Cys bridge TBMB (DOTA-AET)) trifluoroacetate [Compound 10] |  |  |  | A (A > 10000)
Hex-Cys-Pro-Pro-Thr-Gln-Phe-Cys-CH2NH-cyclopentacarboxylic acid (Cys bridge TBMB (DOTA-AET)) trifluoroacetate [Compound 14] |  |  |  | B (10000 > B > 3300)
CCCCCC(=O)N[C@H]1CSCc2cc(CSCCNC(=O)CN3CCN(CC(=O)O)CCN(CC(=O)O)CCN(CC(=O)O)CC3)cc(c2)CSC[C@@H](CC(=O)O)NC(=O)[C@H](Cc2ccccc2C(F)(F)F)NC(=O)[C@H](CCC(N)=O)NC(=O)[C@H]([C@@H](C)O)NC(=O)[C@@H]2CCCN2C(=O)[C@@H]2CCCN2C1=O [Compound 12, Hex-Cys-Pro-Pro-Thr-Gln- Phe(2-CF3)-beta-HomoCys (Cys bridge TBMB (DOTA-AET)) trifluoroacetate] | 94 | 0.46 | > 10000 | A (A > 10000)
CCCCCC(=O)N[C@H]1CSCc2cccc(c2F)CSC[C@@H](CNC(=O)C[C@H]2CC[C@H](NC(=O)CCNC(=O)CN3CCN(CC(=O)O)CCN(CC(=O)O)CCN(CC(=O)O)CC3)CC2)NC(=O)[C@H](Cc2ccccc2)NC(=O)[C@H](CCC(N)=O)NC(=O)[C@H]([C@@H](C)O)NC(=O)[C@@H]2CCCN2C(=O)[C@@H]2CCCN2C1=O [Compound 15, Hex-Cys-Pro-Pro-Thr-Gln-Phe-Cys-CH2NH-(trans-4-aminocyclohexane acetic acid-betaAla-DOTA) (Cys bridge 2,6-bis(bromomethyl)fluorobenzene) trifluoroacetate] | 93 | 0.67 | > 10000 | B (10000 > B > 3300)
